Test results published in patent publication US9527836B2, “Crystal having specific crystal habit and pharmaceutical composition containing the crystal as active ingredient” (POLA PHARMA INC., priority 2013, dated 2016).

Key:
[1] = system: Trichomonas vaginalis (clinically isolated strain); assay: Direct effect on Trichomonas vaginalis culture, number of individuals counted on a hemocytometer; format: cell-based; conditions: 5.08 mg solid crystal added to Trichomonas medium F; culture of 3.93×10^5 individuals/mL; cultured at 37° C. for 4 days
Description: The direct effect of luliconazole was investigated by using Trichomonas vaginalis (clinically isolated strain). That is, there were prepared a sample in which 5.08 mg of luliconazole of Comparative Example 1 recrystallized from n-hexane and ethyl acetate was added to “Trichomonas medium F” (produced by Fuji Pharma Co., Ltd.), a sample in which 5.08 mg of the crystal of Example 2 was added, and a sample (control) in which 5 μL of water was added. […] of a culture of Trichomonas vaginalis of 3.93×10^5 individuals/mL was added thereto, followed by being cultured at 37° C. for 4 days, and the number of individuals of Trichomonas was counted on a hemocytometer. A significant difference was confirmed at a significance level of not more than 1% among the three samples. Accordingly, it is appreciated that the crystal of the present invention is excellent in the solid-state reactivity.

[2] = Dissolution state in ethanol, visually confirmed; format: physicochemical; conditions: 20 mg crystal in 2 ml ethanol, stationarily placed at 30° C. for 2 hours
Description: 20 mg of each of the crystals was weighed, to which 2 ml of ethanol was added, followed by being stored by stationarily placed at 30° C. for 2 hours. The dissolution state was visually confirmed. Accordingly, it is appreciated that the crystal of the present invention is easily dissolved in the polar solvent.

[3] = Tablet hardness measurement with hardness meter PTB311; format: physicochemical; conditions: tablet of 50% by mass lactose and 50% by mass luliconazole, tablet making pressure 1 ton/cm^2, 9 mmφ, average of six samples
Description: A tablet was manufactured in accordance with a formulation shown in Table 5 below, and the hardness was measured. PTB311 (produced by Pharma Test GmbH) was used as a hardness meter. As for the tablet making condition, the tablet making was performed at a tablet making pressure of 1 ton/cm^2 by using a pestle and a mortar of 9 mmφ. In Comparative Example, the operation was performed in the same manner as described above by using the crystal (Comparative Example 1) obtained by performing the recrystallization with n-hexane-ethyl acetate.

[4] = listed as crystal of Comp. Ex. 1

**Q.** With `N#C/C(=C1/SC[C@@H](c2ccc(Cl)cc2Cl)S1)n1ccnc1` [Comp. Ex. 1, luliconazole, reference compound] as the molecule, how does the “number of individuals of Trichomonas (Average)” value [1] read?
**A.** 376000

**Q.** And the Dissolution state [2, 4]?
**A.** crystal was found at bottom

**Q.** And the Hardness [3, 4]?
**A.** 29.1 ± 3.0 N

**Q.** For `N#C/C(=C1/SC[C@@H](c2ccc(Cl)cc2Cl)S1)n1ccnc1` [Example 1, luliconazole], which Dissolution state ([2]; listed as crystal of Example 1) is on record?
**A.** no crystal was found

**Q.** For `N#C/C(=C1/SC[C@@H](c2ccc(Cl)cc2Cl)S1)n1ccnc1` [Example 2, luliconazole], which “number of individuals of Trichomonas (Average)” value [1] is on record?
**A.** 256000

**Q.** What about the Dissolution state ([2]; listed as crystal of Example 2) of the same molecule?
**A.** no crystal was found

**Q.** What about the Hardness ([3]; listed as crystal of Example 2) of the same molecule?
**A.** 73.7 ± 4.2 N
